The target of one assay is T1, tyrosine kinase Mer (Homo sapiens, UniProt Q12866).
T1 construct: purchased Carna 08-108
T1 sequence (Q12866 528-999 limits assumed): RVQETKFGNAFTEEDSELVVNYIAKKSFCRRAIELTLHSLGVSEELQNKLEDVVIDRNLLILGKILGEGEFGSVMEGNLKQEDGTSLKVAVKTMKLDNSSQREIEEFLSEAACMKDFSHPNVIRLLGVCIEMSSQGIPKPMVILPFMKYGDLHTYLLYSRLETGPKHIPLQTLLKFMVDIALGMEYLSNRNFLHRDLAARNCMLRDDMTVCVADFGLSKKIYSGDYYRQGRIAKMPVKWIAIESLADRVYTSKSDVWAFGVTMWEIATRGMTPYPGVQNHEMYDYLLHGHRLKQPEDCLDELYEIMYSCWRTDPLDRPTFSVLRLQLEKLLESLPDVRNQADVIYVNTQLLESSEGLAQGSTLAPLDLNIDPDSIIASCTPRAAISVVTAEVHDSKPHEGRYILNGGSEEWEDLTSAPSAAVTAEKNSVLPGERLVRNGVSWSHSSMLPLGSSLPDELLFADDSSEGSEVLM
The assay is described as follows: HTRF assay, inhibitory activity against tyrosine kinase Mer. It is filed as biochemical. The following applies: ATP at Km (30 μM), two duplicate wells. As for the experimental part:
Test Example 2: Evaluation of Inhibitory Activity (IC50) of Compounds disclosed herein against Tyrosine Kinases Mer and Tyro3
In this test, HTRF method was used to test the inhibitory activity of compounds when ATP concentrations correspond to the Km of the kinases. The control substance was RXDX-106. The concentration of test compound was 3-fold diluted from an initial concentration of 10 μM, and two duplicate wells were set.
Kinase Mer (Carna, Cat. No. 08-108, Lot. No. 14CBS-0421H); Tyro3 (Carna, Cat. No. 08-109, Lot. No. 08CBS-1186H); HTRF kinase-TK kit (Cisbio, Cat. No. 62TK0PEC), the kit comprising: biotin-TK substrate lyophilized powder (Cisbio, Cat. No. 61TK0BLC, Lot. No. 07A), streptavidin-XL665 (Cisbio, Cat. No. 610SAXLG, Lot. No. 126A), TK antibody-cryptate (Cisbio, Cat. No. 610SAXLG, Lot. No. 04A), and detection buffer (including EDTA) (Cisbio, Cat. No. 62TK0PEC, Lot. No. 12A); ATP (Sigma, Cat. No. A7699-5G, CAS No. 34369-07-8, Lot. No. SLBQ6014V); DMSO (Sigma, Cat. No. D5879-1L, Lot. No. SHBH9944); HEPES (Sigma, Cat. No. V900477-500G, CAS No. 7365-45-9, Lot. No. WXBC4716V); MgCl2 (Sigma, Cat. No. 208337-1KG, Lot. No. MKBX9508V); EGTA (Sigma, Cat. No. E3889-100g, CAS 67-42-5, […], Lot. No. SLBG8546V); NP-40 (Beijing Dingguo, Cat. No. DH218, Lot. No. 36R00160); DTT (Sigma, Cat. No. D0632-25g, CAS No. 3483-12-3, Lot. No. SLBF3964V); compound plate (Labcyte, Cat. No. LP0200, Lot. No. 0006386836); assay plate (Greiner, Cat. No. 784075, Lot. No. E16123HM); control substance RXDX-106 (prepared according to the method disclosed in patent WO2013074633).
1) Preparation of a buffer: 50 mM HEPES, 10 mM MgCl2, 1 mM EGTA, 0.01% NP-40, 2 mM DTT.
2) Preparation of control substance and test samples: RXDX-106 and the compounds disclosed herein were each dissolved in DMSO to 10 mM and then diluted to 1 mM or an appropriate concentration with DMSO, and then serial double dilution was performed using BRAVO (Agilent). 100 nL of each was transferred from a compound plate (Labcyte-LP0200) to an assay plate (Greiner-784075) using ECHO 555 (Labcyte). The final concentration of DMSO was 1%.
3) Mer and Tyro3 were each diluted to 0.5 nM and 1.2 nM with the detection buffer (Cisbio, Cat. No. 62TK0PEC, Lot. No. 12A). 5 μL of each was added to a 384-well plate and incubated with the compounds disclosed herein for 30 min at 22-25° C. Final concentrations of Mer and Tyro3 were 0.25 nM and 0.6 nM, respectively.
4) Biotin-TK substrate and ATP were each diluted to a concentration twice the final concentration with 1× kinase buffer made up of HEPES, NaN3, BSA and orthovanadate. 5 μL of the mixture of substrate and ATP was added to the 384-well plate to initiate the reaction, which lasts for 1 h at 22-25° C.
5) Streptavidin-XL665 and TK antibody-cryptate were diluted to 250 nM and 0.5 nM, respectively, with the detection buffer. […] of each of the two solutions was added to the 384-well plate to initiate the reaction, which lasts for 1 h at 22-25° C. The final concentrations of streptavidin-XL665 and TK antibody-cryptate were 125 nM and 0.25 nM, respectively.
6) The fluorescence intensities at 665 nm and 615 nm were read with an Envision Reader (PerkinElmer) .
7) IC50 values of the compounds were fitted with XL-fit software.

A further assay concerns the target T2, kinase c-MET (Homo sapiens, UniProt P08581).
T2 construct: purchased Carna 08-151
The assay is described as follows: Mobility shift assay, inhibitory activity against kinase c-MET. The class given is biochemical. The settings on record: ATP at Km (35 μM), average of two independent experiments.

Our source for the IC50 values is patent US20210355107A1, “MULTI-SUBSTITUTED PYRIDONE DERIVATIVES AND MEDICAL USE THEREOF” (Beijing Yuezhikangtai Biomedicines Co., Ltd., priority 2018, published 2021).

T2 sequence (P08581 956-1390 limits assumed): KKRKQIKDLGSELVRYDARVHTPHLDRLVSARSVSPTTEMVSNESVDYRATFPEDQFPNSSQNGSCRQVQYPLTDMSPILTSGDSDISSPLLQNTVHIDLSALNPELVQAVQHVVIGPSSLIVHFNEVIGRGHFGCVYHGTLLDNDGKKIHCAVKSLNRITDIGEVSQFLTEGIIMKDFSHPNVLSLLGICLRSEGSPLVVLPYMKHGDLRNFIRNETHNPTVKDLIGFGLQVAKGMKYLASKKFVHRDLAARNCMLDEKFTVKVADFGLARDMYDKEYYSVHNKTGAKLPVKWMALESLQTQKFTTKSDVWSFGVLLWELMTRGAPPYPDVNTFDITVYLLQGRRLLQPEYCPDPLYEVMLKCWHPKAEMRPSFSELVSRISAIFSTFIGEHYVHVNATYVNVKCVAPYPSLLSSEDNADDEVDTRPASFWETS

Compound `[2H]C([2H])([2H])n1cc(-c2cnc(N)c(-c3cc(F)c(NC(=O)c4cn(C(C)C)c(C#N)c(-c5ccc(F)cc5)c4=O)cc3F)c2)cn1` [Example 34, N-(4-(2-amino-5-(1-methyl-d3-1H-pyrazol-4-yl)pyridin-3-yl)-2,5-difluorophenyl)-6-cyano-5-(4-fluorophenyl)-1-isopropyl-4-oxo-1,4-dihydropyridine-3-carboxamide] registered an IC50 against tyrosine kinase Mer of 1.16 nM.
`CC(C)n1cc(C(=O)Nc2cc(F)c(-c3cc(-c4cnn(C)c4)cnc3N)cc2F)c(=O)c(-c2ccc(F)cc2)c1C#N` [Example 6, N-(4-(2-amino-5-(1-methyl-1H-pyrazol-4-yl)pyridin-3-yl)-2,5-difluorophenyl)-6-cyano-5-(4-fluorophenyl)-1-isopropyl-4-oxo-1,4-dihydropyridine-3-carboxamide]: the half-inhibitory concentration (IC50) at kinase c-MET was determined as 26 nM; at tyrosine kinase Mer it was 1.17 nM.
The compound `COc1cc2nccc(Oc3ccc(NC(=O)c4cn(C(C)C)c(C#N)c(-c5ccc(F)cc5)c4=O)cc3F)c2cc1OC` [Example 24, 6-cyano-N-(4-((6,7-dimethoxyquinolin-4-yl)oxy)-3-fluoro-phenyl)-5-(4-fluorophenyl)-1-isopropyl-4-oxo-1,4-dihydropyridine-3-carboxamide] returned an IC50 at tyrosine kinase Mer of 11.4 nM.
With `CCn1cc(-c2cnc(N)c(-c3ccc(NC(=O)c4cn(C5CC5)c(C#N)c(-c5ccc(F)cc5)c4=O)cc3F)c2)cn1` [Example 10, N-(4-(2-amino-5-(1-ethyl-1H-pyrazol-4-yl)pyridin-3-yl)-3-fluorophenyl)-6-cyano-5-(4-fluorophenyl)-1-cyclopropyl-4-oxo-1,4-dihydropyridine-3-carboxamide], the IC50 on kinase c-MET was found to be 23 nM; against tyrosine kinase Mer, 2.17 nM.
Consider `CC(C)n1cc(C(=O)Nc2ccc(-c3cc(-c4cnn(C5CCNCC5)c4)cnc3N)c(F)c2)c(=O)c(-c2ccc(F)cc2)c1C#N` [Example 2, N-(4-(2-amino-5-(1-(piperidin-4-yl)-1H-pyrazol-4-yl)pyridin-3-yl)-3-fluorophenyl)-6-cyano-5-(4-fluorophenyl)-1-isopropyl-4-oxo-1,4-dihydropyridine-3-carboxamide], for which the IC50 at kinase c-MET was 14 nM; against tyrosine kinase Mer it was 0.62 nM.
As to `CCn1cc(-c2cnc(N)c(-c3ccc(NC(=O)c4cn(C(C)C)c(C#N)c(-c5ccc(F)cc5)c4=O)cc3F)c2)cn1` [Example 3, N-(4-(2-amino-5-(1-ethyl-1H-pyrazol-4-yl)pyridin-3-yl)-3-fluoro-phenyl)-6-cyano-5-(4-fluorophenyl)-1-isopropyl-4-oxo-1,4-dihydropyridine-3-carboxamide], the IC50 worked out at 30 nM at kinase c-MET and 1.11 nM against tyrosine kinase Mer.
In the same order, the values of `CC(C)n1cc(C(=O)Nc2ccc(-c3cc(-c4cnn(C)c4)cnc3N)c(F)c2)c(=O)c(-c2ccc(F)cc2)c1C#N` [Example 4, N-(4-(2-amino-5-(1-methyl-1H-pyrazol-4-yl)pyridin-3-yl)-3-fluorophenyl)-6-cyano-5-(4-fluorophenyl)-1-isopropyl-4-oxo-1,4-dihydropyridine-3-carboxamide] are 3 nM and 0.78 nM.
Compound `CCn1cc(-c2cnc(N)c(-c3cc(F)c(NC(=O)c4cn(C(C)C)c(C#N)c(-c5ccc(F)cc5)c4=O)cc3F)c2)cn1` [Example 33, N-(4-(2-amino-5-(1-ethyl-1H-pyrazol-4-yl)pyridin-3-yl)-2,5-difluorophenyl)-6-cyano-5-(4-fluorophenyl)-1-isopropyl-4-oxo-1,4-dihydropyridine-3-carboxamide] showed an IC50 against tyrosine kinase Mer of 0.92 nM.
`CC(C)n1cc(C(=O)Nc2ccc(-c3cc(-c4cnn(C5CCN(C)CC5)c4)cnc3N)c(F)c2)c(=O)c(-c2ccc(F)cc2)c1C#N` [Example 7, N-(4-(2-amino-5-(1-(1-methylpiperidin-4-yl)-1H-pyrazol-4-yl)-pyridin-3-yl)-3-fluorophenyl)-6-cyano-5-(4-fluorophenyl)-1-isopropyl-4-oxo-1,4-dihydro-pyridine-3-carboxamide]: the midpoint of inhibition on tyrosine kinase Mer, the IC50, lay at 0.63 nM.

For orientation: IC50 means the concentration at which inhibition is half-maximal.
